Where a name gives a salt, the structure may show the parent alone. Read-outs that look alike come from different tables or passages of the source.

This is an account of results in patent US10858339B2, “Aryl cyclopropyl-amino-isoquinolinyl amide compounds” (priority 2017, dated 2020).

In assay [1] the target is T1, JAK3 (Homo sapiens, UniProt P52333).
T1 sequence (P52333 1-1124): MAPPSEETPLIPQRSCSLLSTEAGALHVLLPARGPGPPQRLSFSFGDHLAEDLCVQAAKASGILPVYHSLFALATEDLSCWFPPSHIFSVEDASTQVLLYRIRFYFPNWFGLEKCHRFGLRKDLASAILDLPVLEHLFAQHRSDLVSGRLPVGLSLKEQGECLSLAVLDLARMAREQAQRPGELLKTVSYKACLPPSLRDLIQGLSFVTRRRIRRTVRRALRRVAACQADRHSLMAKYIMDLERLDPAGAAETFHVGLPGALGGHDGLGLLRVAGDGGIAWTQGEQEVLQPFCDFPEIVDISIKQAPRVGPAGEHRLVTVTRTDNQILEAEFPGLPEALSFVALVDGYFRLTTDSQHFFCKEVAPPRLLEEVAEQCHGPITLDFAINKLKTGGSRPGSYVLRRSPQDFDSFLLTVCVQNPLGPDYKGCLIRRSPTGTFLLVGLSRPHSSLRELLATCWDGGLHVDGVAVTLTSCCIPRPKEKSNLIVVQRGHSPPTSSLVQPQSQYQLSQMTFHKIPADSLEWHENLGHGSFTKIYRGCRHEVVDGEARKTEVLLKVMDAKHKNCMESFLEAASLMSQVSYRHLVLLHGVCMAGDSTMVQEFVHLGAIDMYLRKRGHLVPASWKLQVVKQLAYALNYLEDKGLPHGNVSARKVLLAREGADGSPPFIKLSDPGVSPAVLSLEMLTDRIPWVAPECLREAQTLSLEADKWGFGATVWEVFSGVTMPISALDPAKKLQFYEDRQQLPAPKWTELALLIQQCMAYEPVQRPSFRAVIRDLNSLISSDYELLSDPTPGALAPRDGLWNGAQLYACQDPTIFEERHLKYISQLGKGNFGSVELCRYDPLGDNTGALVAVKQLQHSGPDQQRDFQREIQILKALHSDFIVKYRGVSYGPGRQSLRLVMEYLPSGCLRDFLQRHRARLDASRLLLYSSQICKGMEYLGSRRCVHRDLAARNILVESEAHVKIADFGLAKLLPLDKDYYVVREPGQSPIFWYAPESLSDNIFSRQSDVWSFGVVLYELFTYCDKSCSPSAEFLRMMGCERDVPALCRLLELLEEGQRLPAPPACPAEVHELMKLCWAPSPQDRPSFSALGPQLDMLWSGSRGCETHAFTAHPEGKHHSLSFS
The assay is described as follows: JAK kinase assay, JAK3 enzyme. The format is biochemical.

Assay [2] relates to Porcine Trabecular Meshwork cells (PTM). Nature of the assay: PTM-HTM assay, actin fiber length in PTM cells. It counts as cell-based. The conditions noted are these: Sus scrofa, read-out: PTM. The protocol: Porcine Trabecular Meshwork cells (PTM) were isolated from freshly obtained enucleated porcine eyes. Immortalized Human Trabecular Meshwork cells (TM-1) were obtained through a kind gift from Donna Peters in the Department of Ophthalmology and Visual Sciences at the University of Wisconsin. Cells were plated onto fibronectin coated glass-bottom 96-well plates and allowed to attach overnight. Media was removed and replaced with test compound in media with 1% fetal bovine serum and incubated for various times. After incubation, cells were formaldehyde fixed, triton solubilized, and stained. PTM cells were stained with Alexa Fluor®488 phalloidin (F-actin) and Hoechst 33342 (nuclei). TM-1 cells were stained with anti-paxillin followed by Alexa Fluor®488 goat-anti-mouse IgG (focal adhesions) and Hoechst 33342 (nuclei). All staining reagents were obtained through Invitrogen. Images were collected on an INCell 2200 imager with a 20× objective. The actin fiber length and total area of focal adhesions were analyzed using custom algorithms developed in the INCell Developer Toolbox, v1.9.3. Data collected were converted to percent of control (untreated cells). Curves were fit to data in GraphPad Prizm using sigmoidal dose-response and constraining top and bottom to 100% and 0%, respectively.

Assay [3] addresses JAK2 (Homo sapiens, UniProt O60674). Nature of the assay: JAK kinase assay, JAK2 enzyme.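 Also: JAK2 kinase reaction run 75 min at room temperature, leftover ATP read by Kinase-Glo luminescence, 11-point dilution series in 2.5% DMSO, percent of inhibitor-free DMSO control.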 It counts as biochemical.
Assay [4] concerns the target Rho Kinase. Nature of the assay: ROCK kinase inhibition assay (Rho Kinase Activity, isoform not given). The conditions noted are these: Table 15, mostly given as ranges. The format is biochemical.
The target in assay [5] is ROCK1 (Homo sapiens, UniProt Q13464). Nature of the assay: ROCK kinase inhibition assay, ROCK1 enzyme.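 Also: kinase reaction with 0.5 µM final ATP, 75 min at room temperature, remaining ATP read by luminescence, percent of DMSO-only control minus background.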 It counts as biochemical.
Sequence of ROCK1 (Q13464 whole entry, species assumed): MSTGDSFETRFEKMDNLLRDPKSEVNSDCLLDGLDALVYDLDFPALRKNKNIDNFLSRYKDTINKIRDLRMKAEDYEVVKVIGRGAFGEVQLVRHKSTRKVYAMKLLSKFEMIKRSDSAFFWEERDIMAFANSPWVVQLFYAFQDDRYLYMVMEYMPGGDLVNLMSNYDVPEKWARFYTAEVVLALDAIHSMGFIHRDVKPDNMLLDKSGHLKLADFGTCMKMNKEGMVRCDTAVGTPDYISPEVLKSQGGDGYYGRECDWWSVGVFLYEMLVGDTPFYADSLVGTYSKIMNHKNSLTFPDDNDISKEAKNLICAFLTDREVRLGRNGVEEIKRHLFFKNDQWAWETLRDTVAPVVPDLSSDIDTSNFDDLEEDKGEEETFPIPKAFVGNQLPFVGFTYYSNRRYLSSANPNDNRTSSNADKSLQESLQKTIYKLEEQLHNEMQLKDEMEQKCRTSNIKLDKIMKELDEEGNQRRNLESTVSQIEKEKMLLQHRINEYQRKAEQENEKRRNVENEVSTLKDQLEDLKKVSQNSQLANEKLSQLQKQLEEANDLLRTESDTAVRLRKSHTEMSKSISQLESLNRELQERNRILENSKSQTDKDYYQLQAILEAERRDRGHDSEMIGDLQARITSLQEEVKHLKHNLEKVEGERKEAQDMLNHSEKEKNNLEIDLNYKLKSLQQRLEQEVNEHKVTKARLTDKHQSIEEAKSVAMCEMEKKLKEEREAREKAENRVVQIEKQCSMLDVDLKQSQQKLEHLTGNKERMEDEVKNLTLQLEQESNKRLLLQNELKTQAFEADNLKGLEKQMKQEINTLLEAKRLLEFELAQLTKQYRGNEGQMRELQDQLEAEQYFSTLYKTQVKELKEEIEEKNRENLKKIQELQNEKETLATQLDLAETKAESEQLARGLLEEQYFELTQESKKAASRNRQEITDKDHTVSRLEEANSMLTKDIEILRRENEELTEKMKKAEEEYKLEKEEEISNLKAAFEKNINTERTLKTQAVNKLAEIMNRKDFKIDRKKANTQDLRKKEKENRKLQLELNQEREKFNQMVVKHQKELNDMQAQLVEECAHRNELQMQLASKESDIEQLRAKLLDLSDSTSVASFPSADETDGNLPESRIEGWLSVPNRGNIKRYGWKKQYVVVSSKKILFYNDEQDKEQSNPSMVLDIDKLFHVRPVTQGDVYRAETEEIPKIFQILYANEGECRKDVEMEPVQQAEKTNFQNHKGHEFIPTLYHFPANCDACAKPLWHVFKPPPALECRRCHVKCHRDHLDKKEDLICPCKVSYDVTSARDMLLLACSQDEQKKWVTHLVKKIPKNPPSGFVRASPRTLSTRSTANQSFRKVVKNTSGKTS
Assay [6] concerns the target ROCK2 (Homo sapiens, UniProt O75116). The assay is described as follows: biochemical.
Assay [7] is described as follows: Rabbit IOP after intracameral injection. The note with it: intracameral injection of a formulation, FIG. 1. The format is in vivo. An excerpt: Examples of such assays are described in the following reference, incorporated herein by reference: C. Liljebris, G. Selen, B. Resul, J. Sternschantz, and U. Hacksell, “Derivatives of 17-phenyl-18,19,20-trinorprostaglandin F2α Isopropyl Ester: Potential Anti-glaucoma Agents”, Journal of Medicinal Chemistry 1995, 38 (2): 289-304.

In assay [8] the target is T2, IKKb (Homo sapiens, UniProt O14920).
T2 sequence (O14920 1-756): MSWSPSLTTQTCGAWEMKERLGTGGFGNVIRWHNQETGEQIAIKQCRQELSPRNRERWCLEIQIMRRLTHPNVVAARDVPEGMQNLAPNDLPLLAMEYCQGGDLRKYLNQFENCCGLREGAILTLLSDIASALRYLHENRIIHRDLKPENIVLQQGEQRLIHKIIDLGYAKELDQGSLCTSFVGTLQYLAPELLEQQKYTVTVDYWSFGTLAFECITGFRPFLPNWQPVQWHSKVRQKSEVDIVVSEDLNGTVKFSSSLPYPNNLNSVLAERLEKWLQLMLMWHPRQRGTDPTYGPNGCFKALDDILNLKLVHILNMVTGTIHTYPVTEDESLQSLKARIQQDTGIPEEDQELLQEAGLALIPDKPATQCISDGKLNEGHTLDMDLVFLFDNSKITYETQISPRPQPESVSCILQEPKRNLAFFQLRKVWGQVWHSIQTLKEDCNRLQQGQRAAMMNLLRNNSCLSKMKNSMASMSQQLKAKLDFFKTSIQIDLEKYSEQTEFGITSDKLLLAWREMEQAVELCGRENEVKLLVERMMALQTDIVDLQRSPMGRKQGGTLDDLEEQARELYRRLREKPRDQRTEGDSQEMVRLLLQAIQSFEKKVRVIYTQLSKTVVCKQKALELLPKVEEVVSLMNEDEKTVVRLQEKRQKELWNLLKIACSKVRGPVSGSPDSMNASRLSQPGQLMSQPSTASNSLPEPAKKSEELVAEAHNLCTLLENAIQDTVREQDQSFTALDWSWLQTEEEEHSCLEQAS
The assay is described as follows: IKKb kinase activity. It counts as biochemical. The note with it: Table 17.

The mark [9] stands for this setting: Table 17, porcine trabecular meshwork cells.

Sequence of JAK2 (O60674 whole entry, species assumed, canonical isoform): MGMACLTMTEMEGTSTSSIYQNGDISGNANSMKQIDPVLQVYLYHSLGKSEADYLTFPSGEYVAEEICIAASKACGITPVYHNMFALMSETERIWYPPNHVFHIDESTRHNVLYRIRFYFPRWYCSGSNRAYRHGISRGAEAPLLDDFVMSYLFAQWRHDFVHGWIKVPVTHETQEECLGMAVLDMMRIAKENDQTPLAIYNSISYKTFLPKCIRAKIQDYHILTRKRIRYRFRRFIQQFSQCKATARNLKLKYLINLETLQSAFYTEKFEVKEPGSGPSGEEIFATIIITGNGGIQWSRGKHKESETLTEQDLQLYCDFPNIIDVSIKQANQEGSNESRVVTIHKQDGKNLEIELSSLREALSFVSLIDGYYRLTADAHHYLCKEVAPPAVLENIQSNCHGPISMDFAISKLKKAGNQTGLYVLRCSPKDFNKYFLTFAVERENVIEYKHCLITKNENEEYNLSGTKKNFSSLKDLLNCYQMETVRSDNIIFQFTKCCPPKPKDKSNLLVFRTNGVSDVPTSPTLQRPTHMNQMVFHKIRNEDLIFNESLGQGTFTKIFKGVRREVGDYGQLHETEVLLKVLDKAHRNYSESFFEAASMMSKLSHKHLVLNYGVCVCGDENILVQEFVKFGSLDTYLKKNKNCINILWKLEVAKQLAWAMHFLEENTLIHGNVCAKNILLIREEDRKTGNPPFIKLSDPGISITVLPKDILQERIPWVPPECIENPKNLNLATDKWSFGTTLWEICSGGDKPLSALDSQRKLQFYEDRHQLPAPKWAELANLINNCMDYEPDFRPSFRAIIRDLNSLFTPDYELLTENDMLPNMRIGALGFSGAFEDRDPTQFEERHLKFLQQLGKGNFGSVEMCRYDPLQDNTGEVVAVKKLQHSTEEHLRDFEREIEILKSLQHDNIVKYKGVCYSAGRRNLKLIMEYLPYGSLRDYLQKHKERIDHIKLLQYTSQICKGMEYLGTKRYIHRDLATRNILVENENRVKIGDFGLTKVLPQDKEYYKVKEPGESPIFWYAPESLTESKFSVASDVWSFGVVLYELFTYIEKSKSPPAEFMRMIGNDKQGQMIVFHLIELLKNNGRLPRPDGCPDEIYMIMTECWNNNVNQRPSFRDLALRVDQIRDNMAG
Sequence of ROCK2 (O75116 whole entry, species assumed): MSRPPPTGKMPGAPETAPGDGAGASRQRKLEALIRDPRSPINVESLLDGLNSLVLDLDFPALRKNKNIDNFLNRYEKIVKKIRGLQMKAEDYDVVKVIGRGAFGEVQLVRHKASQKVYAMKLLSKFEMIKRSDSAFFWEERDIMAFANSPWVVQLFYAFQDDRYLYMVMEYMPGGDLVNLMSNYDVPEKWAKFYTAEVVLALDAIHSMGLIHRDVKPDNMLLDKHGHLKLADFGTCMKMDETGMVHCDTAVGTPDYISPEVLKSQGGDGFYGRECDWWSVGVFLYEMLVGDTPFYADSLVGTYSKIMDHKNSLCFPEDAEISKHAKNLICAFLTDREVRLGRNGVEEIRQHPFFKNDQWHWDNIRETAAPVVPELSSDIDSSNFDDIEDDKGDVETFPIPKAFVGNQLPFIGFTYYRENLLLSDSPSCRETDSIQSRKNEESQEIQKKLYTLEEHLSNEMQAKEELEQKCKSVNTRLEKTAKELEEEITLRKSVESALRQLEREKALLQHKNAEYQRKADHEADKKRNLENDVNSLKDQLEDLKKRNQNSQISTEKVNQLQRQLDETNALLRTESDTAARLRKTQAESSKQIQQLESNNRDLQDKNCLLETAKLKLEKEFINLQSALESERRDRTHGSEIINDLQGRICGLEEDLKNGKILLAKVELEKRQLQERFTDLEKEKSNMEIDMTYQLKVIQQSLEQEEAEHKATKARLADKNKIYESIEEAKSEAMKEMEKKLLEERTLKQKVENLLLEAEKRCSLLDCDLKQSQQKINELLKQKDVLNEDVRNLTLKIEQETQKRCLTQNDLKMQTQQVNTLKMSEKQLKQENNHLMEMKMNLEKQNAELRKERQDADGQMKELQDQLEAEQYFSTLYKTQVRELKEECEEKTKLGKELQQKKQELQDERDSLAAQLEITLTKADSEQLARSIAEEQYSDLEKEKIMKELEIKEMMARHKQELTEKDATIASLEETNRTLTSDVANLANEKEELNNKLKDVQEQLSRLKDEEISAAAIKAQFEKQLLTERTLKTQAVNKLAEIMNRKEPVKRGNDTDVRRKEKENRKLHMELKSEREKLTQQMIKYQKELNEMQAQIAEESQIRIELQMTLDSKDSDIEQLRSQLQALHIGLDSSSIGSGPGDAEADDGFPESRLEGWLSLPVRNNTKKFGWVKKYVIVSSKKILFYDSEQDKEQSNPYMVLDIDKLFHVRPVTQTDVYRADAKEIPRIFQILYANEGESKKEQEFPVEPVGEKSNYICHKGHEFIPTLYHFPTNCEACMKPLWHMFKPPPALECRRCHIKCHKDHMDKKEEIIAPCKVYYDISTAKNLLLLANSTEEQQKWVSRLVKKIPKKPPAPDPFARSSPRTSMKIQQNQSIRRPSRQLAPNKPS

Consider `O=C(Nc1ccc2cnccc2c1)[C@@H]1C[C@H]1c1ccc(S(=O)(=O)Nc2ccccn2)cc1` [(1R,2R)-N-(isoquinolin-6-yl)-2-(4-(N-(pyridin-2-yl)sulfamoyl)phenyl) cyclopropane-1-carboxamide], for which the Ki in assay [1] (Table 17, read-out: JAK3) was 4.3 nM. Besides, in assay [2], the IC50 was 61 nM.
For `O=C(NCc1ccccn1)c1ccc(C2CC(=O)N(c3ccc4cnccc4c3)C2)cc1` (centres unmarked) [Example E233], the Ki in assay [3] (Table 15, in brackets in the activity cell, read-out: JAK2 activity) lay within 5800 to 13500 nM; in assay [1] (Table 15, in brackets in the activity cell, read-out: JAK3 activity), 3400 to 3800 nM; in assay [4], 4350 to 8400 nM.
On to `O=C(Nc1ccc2cnccc2c1)[C@@H]1C[C@H]1c1ccc(S(=O)(=O)Nc2ccccn2)cc1` (single isomer, unassigned) [Example E266], for which the Ki was found to be 12 nM in assay [1] (Table 16, read-out: JAK3) and 9 nM in assay [5] (ROCK1, Table 16).
On to `O=C(Nc1ccc2cnccc2c1)[C@@H]1C[C@H]1c1ccc(F)c(S(=O)(=O)Nc2ccccn2)c1` [Example E280], for which the Ki in assay [3] (Table 16, read-out: JAK2) amounted to 1400 nM; in assay [1] (Table 16, read-out: JAK3) it was 1060 nM; in assay [6] (ROCK2, Table 16) it was 12.5 nM; in assay [5] (ROCK1, Table 16), 15 nM.
Turning to “(1R,2R)—N-(fluoroisoquinolin-6-yl)-2-(4-(pyridinylmethyl)phenyl)cyclopropane-1-carboxamide”, the “changes (reductions) in rabbit IOP” value in assay [7] is “reductions”.
As to `O=C(Nc1ccc2cnccc2c1)[C@@H]1C[C@H]1c1ccc(F)c(S(=O)(=O)Nc2ccccc2)c1` [Example E281], the Ki in assay [3] (Table 16, read-out: JAK2) was determined as 3000 nM; in assay [1] (Table 16, read-out: JAK3), 7500 nM; in assay [6] (ROCK2, Table 16), 240 nM; in assay [5] (ROCK1, Table 16), 150 nM.
With `O=C(Nc1ccc2cncc(Cl)c2c1)C1CC1c1ccc(S(=O)(=O)Nc2ccccn2)cc1` (racemic) [rel-N-(4-chloroisoquinolin-6-yl)-2-(4-(N-(pyridin-2-yl)sulfamoyl)phenyl)cyclopropane-1-carboxamide], in assay [2] (setting [9]), the IC50 was 227 nM. The Ki in assay [8] turned out to be 9 nM.
On to `O=C(Nc1ccc2cnccc2c1)[C@@H]1C[C@H]1c1ccc(F)c(S(=O)(=O)Nc2ccccc2)c1` [drawing 674], for which the Ki in assay [3] (Table 17, read-out: JAK2) amounted to 3000 nM; in assay [1] (Table 17, read-out: JAK3) it was 7500 nM; in assay [6] (ROCK2, Table 17), 240 nM; in assay [5] (ROCK1, Table 17), 150 nM.
As to `O=C(Nc1ccc2cnccc2c1)[C@@H]1C[C@H]1c1ccc(S(=O)(=O)NC[C@@H]2CCCNC2)cc1` (relative stereo) [(rel)-(1R,2R)-N-(isoquinolin-6-yl)-2-(4-(N-(((R)-piperidin-3-yl)methyl)sulfamoyl)phenyl) cyclopropane-1-carboxamide dihydrochloride], the Ki in assay [1] (Table 17, read-out: JAK3) turned out to be 1140 nM; in assay [6] (ROCK2, Table 17), 4 nM; in assay [5] (ROCK1, Table 17), 4 nM.
Consider `O=C(Nc1ccc2cnccc2c1)[C@@H]1C[C@H]1c1ccc(S(=O)(=O)NC[C@@H]2CCCNC2)cc1` [Example E273], for which the Ki came out at 1140 nM in assay [1] (Table 16, read-out: JAK3); 4 nM in assay [6] (ROCK2, Table 16); 4 nM in assay [5] (ROCK1, Table 16).
With `O=C(Nc1ccc2cnccc2c1F)[C@@H]1CC1c1ccc(S(=O)(=O)Nc2ccccn2)cc1` (mixture of isomers) [N-(5-fluoroisoquinolin-6-yl)-2-(4-(N-(pyridin-2-yl)sulfamoyl)phenyl)cyclopropane-1-carboxamide], the Ki in assay [1] (Table 17, read-out: JAK3) stood at 130 nM; in assay [6] (ROCK2, Table 17), 4.9 nM; in assay [8], 144 nM; in assay [5] (ROCK1, Table 17), 10.3 nM. In addition, the IC50 in assay [2] (setting [9]) is 290 nM.
On to `O=C(Nc1ccc2cnccc2c1)[C@@H]1C[C@H]1c1ccc(F)c(S(=O)(=O)Nc2ccccn2)c1` [drawing 673], for which the Ki in assay [3] (Table 17, read-out: JAK2) stood at 1400 nM; in assay [1] (Table 17, read-out: JAK3), 1060 nM; in assay [6] (ROCK2, Table 17) it was 12.5 nM; in assay [5] (ROCK1, Table 17), 15 nM.
`O=C(Nc1ccc2cnccc2c1)[C@@H]1C[C@H]1c1ccc(S(=O)(=O)Nc2ccccn2)cc1` (racemic): in assay [1] (Table 17, read-out: JAK3), the Ki was determined as 12 nM.
